Assay results taken from patent EP4778922A1, “BICYCLIC COMPOUND, AND PREPARATION METHOD THEREFOR AND PHARMACEUTICAL USE THEREOF” (Shanghai Jeyou Pharmaceutical Co., Ltd., priority 2023, dated 2025).

System: 22RV1 cells
Assay: Cell proliferation inhibition assay in 22RV1 cells (CellTiter-Glo, 7 days)
Assay type: cell-based, human
Conditions: Homo sapiens
Experimental: • 1. The human prostate cancer cell lines 22RV1 and LNCaP were purchased from ATCC. […] The cell concentration was adjusted to an appropriate concentration (determined based on the results of cell density optimization experiments), and the cells were seeded into a 96-well plate. A 100 µL cell suspension was added, resulting in 3000 cells per well. […] On the second day, for 22Rv1 cells, test compounds at different concentrations were added, and the cells were incubated at 37°C in a 5% CO2 incubator for 7 days; for LNCaP cells, test compounds at different concentrations were added first, and after 1 hour of treatment, 0.2 nM DHT was added. The cells were then incubated at 37°C in a 5% CO2 incubator for 7 days. • 4. After the incubation period, a volume of CellTiter-Glo detection reagent equal to the volume of the culture medium was added to each well. The plate was shaken and mixed thoroughly for 5 minutes, then incubated at room temperature for 10 minutes. Readings were taken using a PerkinElmer EnVision microplate reader. • 5.
The IC50 curve was fitted and the IC50 value was calculated using the software GraphPad Prism 8 with the calculation formula XY-analysis/Nonlinear regression (curve fit)/Dose response-Inhibition/log (inhibitor) vs. response-Variable slope (four parameters).

Row | IC50 (168 h) [nM] | SMILES | IC50 (22Rv1, 168 h) [nM]
1 | 1010 | CC(C)(c1ccc(-c2ccc(OCc3ccnc(N4CC5COCC5C4)n3)cc2)cc1)c1cc(Cl)c(OCCCl)c(C#N)c1 (stereo not shown) [Compound 199] | 
2 | 390 | CC(C)(c1ccc(-c2ccc(OCc3ccnc(N=S4(=O)CCNCC4)n3)nc2)cc1)c1cc(Cl)c(OCCCl)c(C#N)c1 [Compound 211] | 
3 | 230 | CC(C)(c1ccc(-c2ccc(OCc3ccnc(N4CCC(S(C)(=O)=O)CC4)n3)nc2)cc1)c1cc(Cl)c(OCCCl)c(C#N)c1 [Compound 210] | 
4 | 670 | CC(C)(c1ccc(-c2ccc(OCc3ccnc(N=S4(=O)CCN(C[C@H](O)C(F)(F)F)CC4)n3)cc2)cc1)c1cc(Cl)c(OCCCl)c(C#N)c1 [Compound 287] | 
5 | 700 | CC(C)(c1ccc(-c2ccc(OCc3ccnc(N=S4(=O)CCN(C[C@@H](O)C(F)(F)F)CC4)n3)cc2)cc1)c1cc(Cl)c(OCCCl)c(C#N)c1 [Compound 286] | 
6 | 880 | CC(C)(c1ccc(-c2ccc(OCC3CC4(C3)CN(c3ccnc(P(C)(C)=O)n3)C4)cc2)cc1)c1cc(Cl)c(OCCCl)c(C#N)c1 [Compound 393] | 
7 | 580 | CC(C)(c1ccc(-c2ccc(OCc3ccnc(N4CCN(S(C)(=O)=O)CC4)n3)cc2)cc1)c1cc(Cl)c(OCCCl)c(C#N)c1 [Compound 200] | 
8 | 980 | CC(C)(c1ccc(-c2ccc(Oc3ccnc(P(C)(C)=O)n3)nc2)cc1)c1cc(Cl)c(OCCCl)c(C#N)c1 [Compound 326] | 
9 | 680 | C[C@H](O)CN1CCS(=O)(=Nc2nccc(COc3ccc(-c4ccc(C(C)(C)c5cc(Cl)c(OCCCl)c(C#N)c5)cc4)cc3)n2)CC1 [Compound 316] | 
10 | 1140 | CNC1CN(c2nccc(COc3ccc(-c4ccc(C(C)(C)c5cc(Cl)c(OCCCl)c(C#N)c5)cc4)cc3)n2)C1 [Compound 314] | 
11 | 890 | C[C@@H](Cl)COc1c(Cl)cc(C(C)(C)c2ccc(-c3ccc(OCc4ccnc(P(C)(C)=O)n4)cc3)cc2)cc1C#N [Compound 313] | 
12 | 460 | CC(C)(c1ccc(-c2ccc(OCC3CCC(CN4CC5(C4)CS(=O)(=O)C5)CC3)cc2)cc1)c1cc(Cl)c(OCCCl)c(C#N)c1 (stereo not shown) [Compound 309] | 
13 | 210 | CC(C)(c1ccc(-c2ccc(OCc3ccnc(N=S4(=O)CCN(CC(O)CC(F)(F)F)CC4)n3)cc2)cc1)c1cc(Cl)c(OCCCl)c(C#N)c1 (stereo not shown) [Compound 285] | 
14 | 940 | CC(C)(c1ccc(-c2ccc(OCC3CN(C(=O)C4CC5(C4)CS(=O)(=O)C5)C3)cc2)cc1)c1cc(Cl)c(OCCCl)c(C#N)c1 [Compound 310] | 
15 | 720 | CC(C)(c1ccc(-c2ccc(OCc3ccnc(N=S4(=O)CCN(CC(O)C(F)(F)F)CC4)n3)cc2)cc1)c1cc(Cl)c(OCCCl)c(C#N)c1 (stereo not shown) [Compound 252] | 
16 | 480 | CC(C)(c1ccc(-c2ccc(OCC3CC(CN4CCS(=O)(=O)CC4)C3)cc2)cc1)c1cc(Cl)c(OCCCl)c(C#N)c1 (stereo not shown) [Compound 296] | 

Row | IC50 (168 h) [nM] | SMILES | IC50 (22Rv1, 168 h) [nM]
17 | 1110 | CC(C)(c1ccc(-c2ccc(OCC3CC4(C3)CS(=N)(=O)C4)cn2)cc1)c1cc(Cl)c(OCCCl)c(C#N)c1 (stereo not shown) [Compound 328] | 
18 | 530 | CC(C)(c1ccc(-c2ccc(OCc3ccnc(N4CC5(C4)CC(F)(F)C5)n3)cc2)cc1)c1cc(Cl)c(OCCCl)c(C#N)c1 [Compound 198] | 
19 | 430 | CC(C)(c1ccc(-c2ccc(OCc3ccnc(N=S4(=O)CCN(CC(F)(F)F)CC4)n3)cc2)cc1)c1cc(Cl)c(OCCCl)c(C#N)c1 [Compound 217] | 
20 | 170 | CC(C)(c1ccc(-c2ccc(Oc3ccc(-c4ccnc(P(C)(C)=O)n4)cc3)cc2)cc1)c1cc(Cl)c(OCCCl)c(C#N)c1 [Compound 267] | 
21 | 730 | CC(C)(c1ccc(-c2ccc(OCC3CCC(CN4CC5(C4)CS(=N)(=O)C5)CC3)cc2)cc1)c1cc(Cl)c(OCCCl)c(C#N)c1 (stereo not shown) [Compound 318] | 
22 | 440 | CC(C)(c1ccc(-c2ccc(OCC3CN(C4CCOCC4)C3)cc2)cc1)c1cc(Cl)c(OCCCl)c(C#N)c1 [Compound 212] | 
23 | 210 | CC(C)(c1ccc(-c2ccc(OCc3ccnc(N=S4(=O)CCN(C(=O)C5CC5)CC4)n3)cc2)cc1)c1cc(Cl)c(OCCCl)c(C#N)c1 [Compound 219] | 
24 | 390 | CC(C)(c1ccc(-c2ccc(OCc3ccnc(N4CC5(CCS5(=N)=O)C4)n3)cc2)cc1)c1cc(Cl)c(OCCCl)c(C#N)c1 (stereo not shown) [Compound 329] | 
25 | 1330 | CC(C)(c1ccc(-c2ccc(OCc3cc(P(C)(C)=O)ccn3)cc2)cc1)c1cc(Cl)c(OCCCl)c(C#N)c1 [Compound 224] | 
26 | 300 | CC(C)(c1ccc(-c2ccc(OCCN3CCS(=N)(=O)CC3)cc2)cc1)c1cc(Cl)c(OCCCl)c(C#N)c1 [Compound 324] | 
27 | 680 | CC(C)(c1ccc(-c2ccc(OCc3ccnc(N4CC(S(=N)(=O)C5CC5)C4)n3)cn2)cc1)c1cc(Cl)c(OCCCl)c(C#N)c1 (stereo not shown) [Compound 336] | 
28 | 1200 | CC(C)(c1ccc(-c2ccc(OCC34CC(c5cnc(N6CC(S(C)(=O)=O)C6)nc5)(C3)C4)cc2)cc1)c1cc(Cl)c(OCCCl)c(C#N)c1 [Compound 321] | 
29 | 520 | CC(C)(c1ccc(-c2ccc(OCC3CC(N4CC5(C4)CS(=O)(=O)C5)C3)cc2)cc1)c1cc(Cl)c(OCCCl)c(C#N)c1 (stereo not shown) [Compound 230] | 
30 | 170 | CC(C)(c1ccc(-c2ccc(OCc3ccnc(N=S4(=O)CCN(S(C)(=O)=O)CC4)n3)cc2)cc1)c1cc(Cl)c(OCCCl)c(C#N)c1 [Compound 220] | 
31 | 1310 | CC(C)(c1ccc(-c2ccc(OCc3ccc(-c4cnc(P(C)(C)=O)nc4)cc3)nc2)cc1)c1cc(Cl)c(OCCCl)c(C#N)c1 [Compound 277] | 
32 | 810 | Cc1cc(OCc2ccc(-c3cnc(P(C)(C)=O)nc3)cc2)ccc1-c1ccc(C(C)(C)c2cc(Cl)c(OCCCl)c(C#N)c2)cc1 [Compound 304] | 

Second part, the compound before the results:

Row | SMILES | IC50 (168 h) [nM] | IC50 (22Rv1, 168 h) [nM]
33 | C[S+]([O-])c1nccc(COc2ccc(-c3ccc(C(C)(C)c4cc(Cl)c(OCCCl)c(C#N)c4)cc3)cc2)n1 (stereo not shown) [Compound 81] | 860 | 
34 | CC(C)(c1ccc(-c2ccc(C#Cc3ccnc(N=S4(=O)CCCC4)n3)cc2)cc1)c1cc(Cl)c(OCCCl)c(C#N)c1 [Compound 21] | 340 | 
35 | CC(C)(c1ccc(-c2ccc(OCc3ccnc(N4CC5(CC(S(C)(=O)=O)C5)C4)n3)cc2)cc1)c1cc(Cl)c(OCCCl)c(C#N)c1 [Compound 121] | 190 | 
36 | CC(C)(c1ccc(-c2ccc(OCc3ccnc(N=S4(=O)CCOCC4)n3)c(F)n2)cc1)c1cc(Cl)c(OCCCl)c(C#N)c1 [Compound 154] | 260 | 
37 | CC(c1ccccc1)(c1ccc(-c2ccc(OCc3ccnc(P(C)(C)=O)n3)cc2)cc1)c1cc(Cl)c(OCCCl)c(C#N)c1 (stereo not shown) [Compound 190] | 630 | 
38 | CC(C)(c1ccc(-c2ccc(OCc3ccnc(N4CC5(COC5)C4)n3)cc2)cc1)c1cnc2c(cnn2CCCl)c1 [Compound 45] | 990 | 
39 | CC(C)(c1ccc(-c2ccc(OCc3ccnc(N4CC(O)C4)n3)cc2)cc1)c1cc(Cl)c(OCCCl)c(C#N)c1 [Compound 54] | 1420 | 
40 | CC(C)(c1ccc(-c2ccc(OCc3ccnc(P(C)(C)=O)n3)cn2)cc1)c1cc(Cl)c(OCCCl)c(C#N)c1 [Compound 15] | 1350 | 
41 | CC(C)(c1ccc(-c2cnc(OCc3ccnc(N4CC(S(=N)(=O)C5CC5)C4)n3)cn2)cc1)c1cc(Cl)c(OCCCl)c(C#N)c1 (racemic) [Compound 350] |  | 460
42 | CC(C)(c1ccc(-c2ccc(OCC3CCOCC3)nc2)cc1)c1cc(Cl)c(OCCCl)c(C#N)c1 [Compound 184] | 920 | 
43 | CC(C)(c1ccc(-c2ccc(OCc3ccnc(S(C)(=O)=O)n3)cc2)cc1)c1cc(Cl)c(OCCCl)c(C#N)c1 [Compound 1] | 1070 | 
44 | CC(C)(c1ccc(-c2ccc(OCc3ccnc(N=S4(=O)CCNCC4)n3)cn2)cc1)c1cc(Cl)c(OCCCl)c(C#N)c1 [Compound 86] | 630 | 
45 | CN(C1CN(c2nccc(COc3ccc(-c4ccc(C(C)(C)c5cc(Cl)c(OCCCl)c(C#N)c5)cc4)cc3)n2)C1)S(C)(=O)=O [Compound 93] | 1010 | 
46 | COC1CC2(C1)CN(c1nccc(COc3ccc(-c4ccc(C(C)(C)c5cc(Cl)c(OCCCl)c(C#N)c5)cc4)cc3)n1)C2 [Compound 166] | 1210 | 
47 | CC(C)(c1ccc(-c2ccc(OC3CCN(c4ccnc(N5CC6(COC6)C5)n4)CC3)cc2)cc1)c1cc(Cl)c(OCCCl)c(C#N)c1 [Compound 77] | 1470 | 
48 | CC(C)(c1ccc(-c2ccc(OCc3ccnc(C4CNC4)n3)cc2)cc1)c1cc(Cl)c(OCCCl)c(C#N)c1 [Compound 144] | 740 | 
49 | CC(C)(c1ccc(-c2cnc(OCc3ccnc(N4CC5(COC5)C4)n3)nc2)cc1)c1cc(Cl)c(OCCCl)c(C#N)c1 [Compound 35] | 840 | 
50 | CC(C)(c1ccc(-c2ccc(OCc3ccnc(N4CC5(C4)CS(=O)(=O)C5)n3)cc2)cc1)c1cc(Cl)c(OCCCl)c(C#N)c1 [Compound 24] |  | 1030
51 | CC(C)(c1ccc(-c2ccc(OCc3ccnc(P(C)(C)=O)n3)c(C#N)c2)cc1)c1cc(Cl)c(OCCCl)c(C#N)c1 [Compound 173] | 400 | 
52 | CC(C)(c1ccc(-c2ccc(OC3CCN(c4ccnc(N5CC6(C5)CS(=O)(=O)C6)n4)CC3)cc2)cc1)c1cc(Cl)c(OCCCl)c(C#N)c1 [Compound 78] | 710 | 
53 | CC(C)(c1ccc(-c2ccc(OCC3CC4(C3)CS(=O)(=O)C4)cc2)cc1)c1cc(Cl)c(OCCCl)c(C#N)c1 [Compound 106] | 190 | 
54 | CC(C)(c1ccc(-c2ccc(OCc3scnc3P(C)(C)=O)cc2)cc1)c1cc(Cl)c(OCCCl)c(C#N)c1 [Compound 157] | 480 | 
55 | CC(C)(c1ccc(-c2ccc(OCc3ccnc(N4CC(OCCS(C)(=O)=O)C4)n3)cc2)cc1)c1cc(Cl)c(OCCCl)c(C#N)c1 [Compound 160] |  | 230
